Test results reported in paper PMC5095511 (Journal of nuclear medicine : official publication, Society …, 2016).
“And” between values parts separate entries of the source, which are not always exact repeats. Equal entries are not always repeated.

Tests used:
human sEH = conditions: read-out: human IC50; cited from earlier work
sEH [1] = assay type: in vivo, mouse (sEH-KO, C57BL/6); conditions: baseline
[2] = Radiometabolite analysis of baboon arterial blood/plasma by RP-HPLC; assay type: in vivo, Papio anubis (baboon); conditions: 90 min post-injection
sEH [3] = assay: Dynamic PET imaging of baboon brain, baseline and blocking with nor-fluoro-FNDP; assay type: in vivo, Papio anubis (baboon)
sEH [4] = biological target: T1, sEH (Mus musculus, UniProt P34914); assay type: in vivo, mouse (CD-1); conditions: CD-1 mouse brain, high dose of blocker nor-fluoro-FNDP
T1 sequence (P34914 1-554): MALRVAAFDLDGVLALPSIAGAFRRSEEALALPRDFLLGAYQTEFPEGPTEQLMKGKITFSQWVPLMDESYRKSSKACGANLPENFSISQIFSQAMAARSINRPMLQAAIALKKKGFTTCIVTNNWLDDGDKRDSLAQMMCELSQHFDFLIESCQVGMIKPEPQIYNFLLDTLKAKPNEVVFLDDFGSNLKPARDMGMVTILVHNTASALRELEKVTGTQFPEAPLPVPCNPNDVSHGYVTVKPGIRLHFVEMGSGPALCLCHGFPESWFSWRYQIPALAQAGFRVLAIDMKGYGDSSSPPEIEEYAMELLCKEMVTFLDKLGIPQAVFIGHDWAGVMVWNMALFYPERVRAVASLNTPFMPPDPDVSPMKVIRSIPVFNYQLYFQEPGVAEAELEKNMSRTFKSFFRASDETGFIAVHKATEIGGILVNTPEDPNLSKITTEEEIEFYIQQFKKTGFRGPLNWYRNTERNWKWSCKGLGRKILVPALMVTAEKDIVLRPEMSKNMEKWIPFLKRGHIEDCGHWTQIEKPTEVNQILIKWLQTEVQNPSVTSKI

[5] = Baseline regional brain biodistribution of ^18F-FNDP in CD-1 mice; assay type: in vivo, mouse (CD-1); conditions: IV, mean ± SD, n=3

With O=C(NCCC(c1ccccc1)c1ccccc1)c1ccc([18F])nc1 [^18F-FNDP, N-(3,3-diphenylpropyl)-6-^18F-fluoronicotinamide] the “Regional uptake in striatum, hippocampus and cortex” value (sEH [1]; C57BL6 control mice, 60 min post-injection) was ~ 1 %ID/g, the “Reduction of uptake in sEH-KO mice as compared with controls” value (sEH [1]; 60 min after radiotracer injection) was ~ 90% and the “Remaining parent compound in plasma radioactivity” value [2] was 20% and ~ 20%. The “Blockade in all brain regions” value (sEH [3]; baboon PET) was 95%, the “VT in cerebellum (average)” value (sEH [3]; baboon, baseline, Logan method) was 7.9 ± 1.0 and the “VT in frontal/temporal gyrus and hippocampus” value (sEH [3]; baboon, baseline, Logan method) was > 10.1. The “VT in globus pallidus, corpus callosum, white matter, hypothalamus and thalamus” value (sEH [3]; baboon, baseline, Logan method) was > 8.1, the “VT in insula, putamen, caudate and amygdala” value (sEH [3]; baboon, baseline, Logan method) was > 11.5 and the “Specificity of sEH radiolabeling” value (sEH [3]; both animal species (mouse and baboon)) was “up to 95%”. The “Specific (blocked) binding in striatum, hippocampus and cortex” value (sEH [4]) was 90%, the “Regional brain uptake, cortex” value ([5]; 5 min) was 4.69 ± 0.21 %ID/g tissue and the “Regional brain uptake, hippocampus” value ([5]; 5 min) was 3.29 ± 0.54 %ID/g tissue. For the same molecule, the “Regional brain uptake, hypothalamus” value ([5]; 5 min) was 2.59 ± 0.18 %ID/g tissue, the “Regional brain uptake, rest of brain” value ([5]; 5 min) was 3.53 ± 0.11 %ID/g tissue and the “Regional brain uptake, striatum” value ([5]; 5 min) was 5.24 ± 0.45 %ID/g tissue. The “Regional brain uptake, cerebellum” value ([5]; 15 min) was 1.31 ± 1.01 %ID/g tissue, the “Regional brain uptake, cortex” value ([5]; 15 min) was 2.92 ± 0.36 %ID/g tissue and the “Regional brain uptake, hippocampus” value ([5]; 15 min) was 2.51 ± 0.34 %ID/g tissue. The “Regional brain uptake, hypothalamus” value ([5]; 15 min) was 1.66 ± 0.28 %ID/g tissue, the “Regional brain uptake, rest of brain” value ([5]; 15 min) was 2.37 ± 0.34 %ID/g tissue and the “Regional brain uptake, striatum” value ([5]; 15 min) was 3.29 ± 0.36 %ID/g tissue. For the same molecule, the “Regional brain uptake, cerebellum” value ([5]; 30 min) was 1.09 ± 0.16 %ID/g tissue, the “Regional brain uptake, cortex” value ([5]; 30 min) was 2.07 ± 0.05 %ID/g tissue and the “Regional brain uptake, hippocampus” value ([5]; 30 min) was 1.76 ± 0.15 %ID/g tissue. The “Regional brain uptake, hypothalamus” value ([5]; 30 min) was 1.04 ± 0.08 %ID/g tissue, the “Regional brain uptake, rest of brain” value ([5]; 30 min) was 1.64 ± 0.06 %ID/g tissue and the “Regional brain uptake, striatum” value ([5]; 30 min) was 2.32 ± 0.15 %ID/g tissue. For the same molecule, the “Regional brain uptake, cerebellum” value ([5]; 60 min) was 0.52 ± 0.07 %ID/g tissue, the “Regional brain uptake, cortex” value ([5]; 60 min) was 0.87 ± 0.14 %ID/g tissue and the “Regional brain uptake, hippocampus” value ([5]; 60 min) was 0.81 ± 0.15 %ID/g tissue. For the same molecule, the “Regional brain uptake, hypothalamus” value ([5]; 60 min) was 0.51 ± 0.07 %ID/g tissue, the “Regional brain uptake, rest of brain” value ([5]; 60 min) was 0.71 ± 0.10 %ID/g tissue and the “Regional brain uptake, striatum” value ([5]; 60 min) was 1.07 ± 0.14 %ID/g tissue. For the same molecule, the “Regional brain uptake, cerebellum” value ([5]; 90 min) was 0.29 ± 0.04 %ID/g tissue, the “Regional brain uptake, cortex” value ([5]; 90 min) was 0.45 ± 0.05 %ID/g tissue and the “Regional brain uptake, hippocampus” value ([5]; 90 min) was 0.43 ± 0.06 %ID/g tissue. For the same molecule, the “Regional brain uptake, hypothalamus” value ([5]; 90 min) was 0.31 ± 0.05 %ID/g tissue, the “Regional brain uptake, rest of brain” value ([5]; 90 min) was 0.38 ± 0.04 %ID/g tissue and the “Regional brain uptake, striatum” value ([5]; 90 min) was 0.54 ± 0.07 %ID/g tissue.
